The numbers were not newly measured in patent US20030044472A1, “METHOD AND SYNERGISTIC COMPOSITION FOR TREATING ATTENTION DEFICIT/HYPERACTIVITY DISORDER” (DexGen-Intellectual Property, Homocysteine, Inc., priority 2001, published 2003), which cites them from elsewhere.

Series [1] relates to ADHD children. The settings on record: double blind clinical study.
The subject of series [2] is ADHD children. Particulars: supplements at 6 mg/lb. of the child.

Where a name gives a salt, the structure may show the parent alone.

For `COC(=O)C(c1ccccc1)C1CCCCN1` (centres unmarked) [Ritalin, methylphenidate hydrochloride], the “test score improvements vs. placebo” value in the series with ADHD children [1] is “significant test score improvements”.

On to `[Mg+2]` [magnesium], for which the hyperactivity result with ADHD children [2] was “a decrease in hyperactivity”.
